Measurements published in US12448383B2, “Compounds and methods for treatment of viral infections” (priority 2022, dated 2025).

How the values were obtained:
[1] = tested on: Caco-2 cells (clone C2BBe1); experiment: CACO-2 permeability; type: in vitro ADME; set-up: unit not given here; settings: for DM Caco2 A to B: apical to basolateral, donor pH 6.5, receiver pH 7.4; for DM Caco2 B to A: basolateral to apical
Procedure: Pre-plated Caco-2 cells (clone C2BBel) were obtained from Sigma-Aldrich, Inc. (Atlanta, GA). Cell monolayers were grown to confluence on collagen-coated, microporous, polycarbonate membranes in 24-well transwell plates for 21 days. The permeability assay buffer in donor wells was Hanks' balanced salt solution (HBSS) containing 10 mM HEPES and 15 mM glucose at a pH of 6.5 containing 200 μM BNPP. The receiver wells used HBSS buffer containing 10 mM HEPES and 15 mM glucose at a pH of 7.4 and supplemented with 1°% BSA. After an initial equilibration with transport buffer, TEER values were read to test membrane integrity. The experiment was started by the addition of buffers containing test compounds, 200 μl and 1000 μl in the apical and basolateral chamber, respectively. At 0- and 2-hour post dose, 10 μL was sampled from donor compartment and was immediately diluted in 190 μL of 20% methanol. At 1 and 2 hours post dose, 100 μl of solution was taken from the receiver compartments and was immediately diluted in 100 μl of 20% methanol. Removed buffer was replaced with fresh buffer and a correction was applied to all calculations for the removed material. Each compound was tested in 2 separate replicate wells for each condition. All samples were then extracted with 400 μl 100% acetonitrile with internal standard to precipitate protein. Cells were dosed on the apical or basolateral side to determine forward (A to B) and reverse (B to A) permeability. To test for non-specific binding and compound instability, the total amount of drug was quantitated at the end of the experiment and compared to the material present in the original dosing solution as a percent recovery. […] Samples were analyzed by LC-MS/MS.

[2] = Plasma stability; type: in vitro ADME; set-up: unit not given here; settings: 37° C., 2 μM substrate
Procedure: At 0.05, 0.5, 1, 2, 3 and 4 hr, […] aliquots of the reaction mixture were transferred to plates containing […] of IS/Q quenching solution. After quenching, the plates were centrifuged at 3000 g for 30 minutes, and 150 μL supernatant was diluted with 150 μL water. Aliquots ([…]) of the diluted supernatant were analyzed on a Thermo Q-Exactive mass spectrometer as described below.
Mobile phase A consisted of 0.1% (v/v) formic acid in water. Mobile phase B consisted of 0.1% (v/v) formic acid in acetonitrile. Elution of analytes was achieved by a series of linear gradients of acetonitrile in water containing 0.1°(v/v) formic acid. The mass spectrometer was calibrated on a weekly basis and mass tolerance of 5 ppm was used.

[3] = GI S9 stability - no PMSF; type: in vitro ADME; set-up: GIS9-HUMAN-NoPMSF T1/2: unit: min; settings: human intestinal S9, PMSF-free; for half-life at 2 µM: pH 7.4, read-out: GIS9-HUMAN-NoPMSF T1/2
Procedure: Duplicate aliquots of test compound or positive control substrate (GS-7340) were added to S9 stock diluted with 100 mM phosphate buffered saline, pH 7.4, to obtain a protein concentration of 1.0 mg/mL. The S9 metabolic reactions were initiated by the addition of the substrates to the S9 reaction mixture to a final concentration of 2 μM. At 0, 10, 20, 30, 60 and 120 min, […] aliquots of the reaction mixture were transferred to plates containing […] of IS/Q solution. After quenching, the plates were centrifuged at 3000 g for 30 minutes, and 150 μL aliquots of each supernatant were diluted with 150 μL water. Aliquots ([…]) of the diluted supernatant were analyzed on a Thermo Q-Exactive mass spectrometer as described below. GI S9 Stability—No phenylmethylsulfonyl fluoride (PMSF): Similar to the procedure described above, test compounds were incubated at 2 μM with 1 mg/mL PMSF-free Intestinal S9 fractions. Samples are removed at 6 time points over the course of a 120 min experiment and the parent compound disappreance and reference compound A formation is determined by mass spectrometry.
Example K: Liquid Chromatography/Mass Spectroscopy Methods for S9 and Plasma Stability
Quantification of test compounds, Reference Compound A (S9 stability assay nucleoside metabolite), and controls was performed by analyte/internal standard peak area ratio (PAR) values measured on a Thermo Q-Exactive mass spectrometer coupled to a Dionex UltiMate 3000 HPLC with a Leap Technologies HTC PAL autosampler. The column used for analysis of test compounds and Reference Compound A was a Waters Acquity BEH C18 ([…] particle size, 2.1′50 mm). The column used for control (GS-7340) was a Thermo Hypersil GOLD ([…] particle size, 2.1′50 mm). Mobile phase A consisted of 0.1% (v/v) formic acid in water. Mobile phase B consisted of 0.1% (v/v) formic acid in acetonitrile. Elution of analytes was achieved by a series of linear gradients of acetonitrile in water containing 0.1°(v/v) formic acid. The mass spectrometer was calibrated on a weekly basis and mass tolerance of 5 ppm was used.

[4] = tested on: SARS Coronavirus 2 recombinant with NanoLuc (SARS-CoV2-NLuc) in A549-hACE2 cells; experiment: organism not typed; type: cell-based; settings: 48 h; read-out: SARS-CoV2 EC50
[5] = CC50 MT4 cytotoxicity (Cell-Titer Glo); type: cell-based; settings: human
Procedure: Cytotoxicity of the compounds was determined in uninfected cells using the cell viability reagent in a similar fashion as described before for other cell types (Cihlar et al., Antimicrob Agents Chemother. 2008, 52(2):655-65). HEp-2 (1.5×10^3 cells/well) and MT-4 (2×10^3 cells/well) cells were plated in 384-well plates and incubated with the appropriate medium containing 3-fold serially diluted compound ranging from 15 nM to 100,000 nM. Cells were cultured for 4-5 days at 37° C. Following the incubation, the cells were allowed to equilibrate to 25° C., and cell viability was determined by adding Cell-Titer Glo viability reagent. The mixture was incubated for 10 min, and the luminescence signal was quantified using an Envision plate reader. Untreated cell and cells treated at 2 μM puromycin (Sigma, St. Louis, MO) serve as 100% and 0% cell viability control, respectively. The percent of cell viability was calculated for each tested compound concentration relative to the 0% and 100% controls and the CCso value was determined by non-linear regression as a compound concentration reducing the cell viability by 50%.

[6] = tested on: Respiratory syncytial virus recombinant with luciferase (RSV-Luc5) in Normal Human Bronchial Epithelial (NHBE) cells; experiment: microbe, parasite or virus in culture; type: cell-based; settings: 72 h, read-out: RSV NHBE EC50

Row | Compound | DM Caco2 A to B [1] | DM Caco2 B to A [1] | STA Human Plasma 37 [2] | half-life at 2 µM [3] [s] | EC50 [4] [µM] | CC50 [5] [µM] | EC50 [6] [µM] | GIS9-HUMAN-NoPMSF T1/2 [3]
1 | CC(=O)OC[C@H]1O[C@@](C#N)(c2ccc3c(N)ncnn23)[C@H](OC(C)=O)[C@@H]1OC(C)=O [3rd Reference Ester Compound] | 5.07 | 8.91 | – | – | – | – | – | –
2 | N#C[C@@]1(c2ccc3c(N)ncnn23)O[C@H](COC(=O)OC2CCC2)[C@@H](O)[C@H]1O [Compound 37, ((2R,3S,4R,5R)-5-(4-aminopyrrolo[2,1-f][1,2,4]triazin-7-yl)-5-cyano-3,4-dihydroxytetrahydrofuran-2-yl)methyl cyclobutyl carbonate] | 0.5 | 7.54 | 53 | 35.3 | 3.15 | > 50 | 4.75 | –
3 | CC1(OC(=O)OC[C@H]2O[C@@](C#N)(c3ccc4c(N)ncnn34)[C@H](O)[C@@H]2O)CCCCCC1 [Compound 55, ((2R,3S,4R,5R)-5-(4-aminopyrrolo[2,1-f][1,2,4]triazin-7-yl)-5-cyano-3,4-dihydroxytetrahydrofuran-2-yl)methyl (1-methylcycloheptyl) carbonate] | 0.38 | 1.89 | 75.665 | 35.8 | 2.9 | > 50 | 1.34 | –
4 | CC1(OC(=O)OC[C@H]2O[C@@](C#N)(c3ccc4c(N)ncnn34)[C@H](O)[C@@H]2O)CCCCCCC1 [Compound 57, ((2R,3S,4R,5R)-5-(4-aminopyrrolo[2,1-f][1,2,4]triazin-7-yl)-5-cyano-3,4-dihydroxytetrahydrofuran-2-yl)methyl (1-methylcyclooctyl) carbonate] | – | – | 317.5 | – | 2.29 | > 50 | 2.45 | –
5 | C=CCOC(=O)OC[C@H]1O[C@@](C#N)(c2ccc3c(N)ncnn23)[C@H](O)[C@@H]1O [Compound 64, Ally (((2R,3S,4R,5R)-5-(4-aminopyrrolo[2,1-f][1,2,4]triazin-7-yl)-5-cyano-3,4-dihydroxytetrahydrofuran-2-yl)methyl) carbonate] | 0.39 | 4.6 | 3 | 59.6 | 4.21 | > 50 | 2.66 | –
6 | CC(C)C(C)(C)OC(=O)OC[C@H]1O[C@@](C#N)(c2ccc3c(N)ncnn23)[C@H](O)[C@@H]1O [Compound 68, ((2R,3S,4R,5R)-5-(4-aminopyrrolo[2,1-f][1,2,4]triazin-7-yl)-5-cyano-3,4-dihydroxytetrahydrofuran-2-yl)methyl (2,3-dimethylbutan-2-yl) carbonate] | 0.98 | 7.09 | 266.43 | 2760 | 3.13 | > 50 | 1.3 | –
7 | CC1=CCC(OC(=O)OC[C@H]2O[C@@](C#N)(c3ccc4c(N)ncnn34)[C@H](O)[C@@H]2O)(C(C)C)CC1 (stereo partly drawn) [Compound 74, ((2R,3S,4R,5R)-5-(4-aminopyrrolo[2,1-f][1,2,4]triazin-7-yl)-5-cyano-3,4-dihydroxytetrahydrofuran-2-yl)methyl (1-isopropyl-4-methylcyclohex-3-en-1-yl) carbonate] | 3.25 | 9.88 | 205.11 | 1820 | 2.4 | > 50 | 0.956 | –
8 | CC(C)(OC(=O)OC[C@H]1O[C@@](C#N)(c2ccc3c(N)ncnn23)[C@H](O)[C@@H]1O)c1ccccn1 [Compound 98, [(2R,3S,4R,5R)-5-(4-aminopyrrolo[2,1-f][1,2,4]triazin-7-yl)-5-cyano-3,4-dihydroxy-tetrahydrofuran-2-yl]methyl [1-methyl-1-(2-pyridyl)ethyl] carbonate] | 0.02 | 5.65 | 884.09 | – | – | – | 9 | 789
9 | CC(C)(OC(=O)OC[C@H]1O[C@@](C#N)(c2ccc3c(N)ncnn23)[C@H](O)[C@@H]1O)c1cccnc1 [Compound 99, [(2R,3S,4R,5R)-5-(4-aminopyrrolo[2,1-f][1,2,4]triazin-7-yl)-5-cyano-3,4-dihydroxy-tetrahydrofuran-2-yl]methyl [1-methyl-1-(3-pyridyl)ethyl] carbonate] | 0.11 | 2.47 | 173.49 | 5800 | – | – | 3.15 | –
10 | COC(=O)OC[C@H]1O[C@@](C#N)(c2ccc3c(N)ncnn23)[C@@H]2OC(=O)O[C@@H]21 [Compound 127, ((3aR4R,6R,6aR)-6-(4-aminopyrrolo[2,1-f][1,2,4]triazin-7-yl)-6-cyano-2-oxotetrahydrofuro[3,4-d][1,3]dioxol-4-yl)methyl methyl carbonate] | – | – | 12.071 | 57.4 | 13.7 | > 50 | 5.06 | –
11 | C=CCCC(=O)O[C@H]1[C@@H](OC(=O)CCC=C)[C@](C#N)(c2ccc3c(N)ncnn23)O[C@@H]1COC(=O)OC(C)C [Compound 134, (2R,3R,4R,5R)-2-(4-aminopyrrolo[2,1-f][1,2,4]triazin-7-yl)-2-cyano-5-(((isopropoxycarbonyl)oxy)methyl)tetrahydrofuran-3,4-diyl bis(pent-4-enoate)] | – | – | 65.405 | – | 5.13 | > 50 | 1.4 | –
12 | N#C[C@@]1(c2ccc3c(N)ncnn23)O[C@H](CO)[C@@H](O)[C@H]1O [Reference Compound A, (2R,3R,4S,5R)-2-(4-aminopyrrolo[2,1-f][1,2,4]triazin-7-yl)-3,4-dihydroxy-5-(hydroxymethyl)tetrahydrofuran-2-carbonitrile, reference compound] | 0.12 | 1.52 | – | – | – | – | – | –
